{"source": "patent US6054450A", "about": "“Hair-care cosmetic compositions having dandruff formation-suppressing effect” (Pacific Corporation, priority 1997, dated 2000)", "key": {"[1]": {"conditions": "cited from earlier work; for Acute Oral LD50: rats"}, "Solubility": {"experiment": "Solubility", "format": "physicochemical"}, "Pityrosporum ovlae": {"tested_on": "Pityrosporum ovlae", "experiment": "Antibacterial activity against Pityrosporum ovlae (general statement)", "format": "cell-based"}, "[2]": {"experiment": "Stability of iodopropynyl butylcarbamate to temperature and pH", "conditions": "70~80° C. and pH 4~10"}, "[3]": {"conditions": "cited from earlier work"}}, "data": [{"smiles": "CCCCNC(=O)OCC#CI", "note": "[iodopropynyl butylcarbamate]", "values": [{"measurement": "safety and toxicity compared with zinc pyrithione", "setting": "[1]; compared with zinc pyrithione", "result": "very advantageous over zinc pyrithione"}, {"measurement": "Acute Oral LD50", "setting": "[1]", "result": 1470, "unit": "mg/kg"}, {"measurement": "solubility in alcohols or glycol derivatives", "setting": "Solubility; alcohols or glycol derivatives", "result": "high solubility"}, {"measurement": "solubility in ionic or non-ionic surfactants", "setting": "Solubility; ionic or non-ionic surfactants", "result": "good solubility"}, {"measurement": "solubility in water", "setting": "Solubility; water", "result": "low solubility"}, {"measurement": "MIC", "setting": "Pityrosporum ovlae", "result": "very low"}, {"measurement": "antibacterial action", "setting": "Pityrosporum ovlae", "result": "very strong"}, {"measurement": "stability", "setting": "[2]", "result": "very stable"}]}, {"smiles": "[O-]n1ccccc1=S.[O-]n1ccccc1=S.[Zn+2]", "note": "[zinc pyrithione, zinc salt of 1-hydroxy-2(1H) pyridinethione]", "values": [{"measurement": "Acute Oral LD50", "setting": "[1]", "result": 354, "unit": "mg/kg"}, {"measurement": "solubility in ethanol", "setting": "[3]; ethanol", "result": 310, "unit": "ppm"}, {"measurement": "solubility in water at 25° C.", "setting": "[3]; water, 25° C.", "result": "about 15 ppm"}, {"measurement": "solubility", "setting": "[3]; water, ethanol and most common organic solvents such as ethylene glycol, diethyl ether and isopropanol", "result": "substantially insoluble"}]}]}
